This assay can be described thus: Relaxometry of the particles (Bruker Minispec MQ60 NMR analyser, 1.4 T). It counts as physicochemical. The note with it: at 50 MHz; gadolinium quantities measured by ICP. The protocol: The relaxivity r1 considered here is a relaxivity per M^n+ ion (for example gadolinium). r1 is found from the following formula: 1/T1=[1/T1]water+r1[M^n+] […]
Moreover, the relaxivity of the particles from Example 15 was measured by relaxometry, the actual quantities of gadolinium being measured by ICP, on a Varian 710-ES instrument.

Structures are written as SMILES.

On to `O=C([O-])CN1CCN(CC(=O)[O-])CCN(CC(=O)[O-])CCN(CC(=O)[O-])CC1.[Gd+3]` [Gd-DOTA], for which the “relaxivity r1 (of the gadolinium species)” value is reported as 3.8 s^−1 mM^−1 (of gadolinium)^−1.s^−1.

The values above are taken from US12533426B2, “Ultrafine nanoparticles comprising a functionalized polyorganosiloxane matrix and including metal complexes; method for obtaining same and uses thereof in medical imaging and/or therapy” (NANOH, priority 2010, dated 2026).
